Laboratory results from article PMC12262901, “Natural product-mediated reaction hijacking mechanism validates Plasmodium aspartyl-tRNA synthetase as an antimalarial drug target” (PLOS Pathogens, 2025).

Columns and labels:
[1] = molecular target: T1, native length PfAspRS (49-626) (Plasmodium falciparum, UniProt Q8I2B1); assay: differential scanning fluorimetry after […] h incubation with substrates; type: binding; conditions: AMS (10 or 50 µM) with 10 µM ATP, 20 µM L-Asp, 80 µM E. coli tRNA, 5 mM MgCl2, pH 8, 37 °C; reaction hijacking, covalent Asp-AMS adduct made by the enzyme; value is the Tm, not the shift
T1 construct: gene PF3D7_0102900; residues 49-626, cytoplasmic, codon-optimised, expressed in E. coli BL21(DE3), N-terminal His-tag removed with TEV protease, homodimer; observed mass 67831 Da
T1 sequence (Q8I2B1 49-626): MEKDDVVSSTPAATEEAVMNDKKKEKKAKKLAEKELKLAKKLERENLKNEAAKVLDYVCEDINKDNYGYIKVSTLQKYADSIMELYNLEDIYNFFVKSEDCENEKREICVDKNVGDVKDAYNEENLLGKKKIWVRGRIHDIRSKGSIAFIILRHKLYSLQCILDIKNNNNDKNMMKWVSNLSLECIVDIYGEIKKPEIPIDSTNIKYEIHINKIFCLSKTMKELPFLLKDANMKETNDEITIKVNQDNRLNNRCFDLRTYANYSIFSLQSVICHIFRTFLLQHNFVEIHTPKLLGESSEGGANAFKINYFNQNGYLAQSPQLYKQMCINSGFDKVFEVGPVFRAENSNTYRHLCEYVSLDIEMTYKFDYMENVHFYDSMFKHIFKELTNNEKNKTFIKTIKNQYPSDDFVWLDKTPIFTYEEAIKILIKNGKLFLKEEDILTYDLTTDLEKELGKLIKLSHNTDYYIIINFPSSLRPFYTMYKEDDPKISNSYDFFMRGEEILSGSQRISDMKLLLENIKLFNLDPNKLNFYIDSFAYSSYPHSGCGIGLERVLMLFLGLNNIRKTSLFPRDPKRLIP

[2] = molecular target: T2, native length PvAspRS (51-631) (Plasmodium vivax, UniProt A5K9Y2); assay: as above; type: binding; conditions: AMS (10 or 50 µM) with 10 µM ATP, 20 µM L-Asp, 80 µM E. coli tRNA, 5 mM MgCl2, pH 8, 37 °C; reaction hijacking, covalent Asp-AMS adduct made by the enzyme; value is the Tm, not the shift
T2 construct: gene PVX_081610; residues 51-631, codon-optimised, expressed in E. coli BL21(DE3), N-terminal His-tag removed with TEV protease, homodimer
T2 sequence (A5K9Y2 51-631): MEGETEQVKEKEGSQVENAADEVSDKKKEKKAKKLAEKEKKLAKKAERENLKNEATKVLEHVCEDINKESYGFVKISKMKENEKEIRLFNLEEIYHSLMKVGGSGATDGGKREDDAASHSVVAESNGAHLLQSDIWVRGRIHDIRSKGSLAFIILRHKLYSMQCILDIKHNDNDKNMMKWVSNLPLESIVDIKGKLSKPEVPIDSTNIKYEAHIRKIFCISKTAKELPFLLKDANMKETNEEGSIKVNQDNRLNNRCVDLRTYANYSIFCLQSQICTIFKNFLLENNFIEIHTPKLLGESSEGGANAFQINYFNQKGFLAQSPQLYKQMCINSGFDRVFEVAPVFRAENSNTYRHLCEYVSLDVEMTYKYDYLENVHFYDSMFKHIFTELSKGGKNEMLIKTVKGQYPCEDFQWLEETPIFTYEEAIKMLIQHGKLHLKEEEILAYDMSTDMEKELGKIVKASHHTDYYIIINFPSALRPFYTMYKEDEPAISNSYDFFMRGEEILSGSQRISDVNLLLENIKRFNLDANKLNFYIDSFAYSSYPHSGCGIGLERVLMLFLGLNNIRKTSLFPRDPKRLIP

[3] = molecular target: T1, native length PfAspRS (49-626); assay: Kinase-Glo ATP consumption assay; type: biochemical; conditions: 10 µM ATP, 200 µM L-Asp, 80 µM E. coli tRNA, 5 mM MgCl2, pyrophosphatase, pH 8, 37 °C
[4] = molecular target: T3, truncated PvAspRS (96-631) (Plasmodium vivax, UniProt A5K9Y2); assay: Kinase-Glo ATP consumption assay; type: biochemical; conditions: 10 µM ATP, 200 µM L-Asp, 80 µM E. coli tRNA, 5 mM MgCl2, pyrophosphatase, pH 8, 37 °C
T3 construct: gene PVX_081610; residues 96-631, lacks N-terminal extension, pETM-41 vector, expressed in E. coli BL21(DE3), tag removed with TEV protease, homodimer
T3 sequence (A5K9Y2 96-631): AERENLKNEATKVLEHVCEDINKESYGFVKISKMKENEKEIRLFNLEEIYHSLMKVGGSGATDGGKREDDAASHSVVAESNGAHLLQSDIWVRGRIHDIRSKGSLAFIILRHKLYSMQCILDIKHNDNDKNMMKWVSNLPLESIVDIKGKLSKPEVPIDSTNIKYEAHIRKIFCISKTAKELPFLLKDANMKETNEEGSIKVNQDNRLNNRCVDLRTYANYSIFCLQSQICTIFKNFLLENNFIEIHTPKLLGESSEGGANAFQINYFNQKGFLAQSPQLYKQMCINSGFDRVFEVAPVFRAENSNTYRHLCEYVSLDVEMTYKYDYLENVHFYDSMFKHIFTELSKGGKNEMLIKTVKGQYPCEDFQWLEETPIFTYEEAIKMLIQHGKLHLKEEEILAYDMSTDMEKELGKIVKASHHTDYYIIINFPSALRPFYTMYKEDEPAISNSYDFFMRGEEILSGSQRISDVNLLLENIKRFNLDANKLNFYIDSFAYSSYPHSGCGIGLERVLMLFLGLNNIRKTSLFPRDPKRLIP

[5] = molecular target: T4, HsAspRS (1-501) (Homo sapiens, UniProt P14868); assay: Kinase-Glo ATP consumption assay; type: biochemical; conditions: 10 µM ATP, 200 µM L-Asp, 160 µM E. coli tRNA, 5 mM MgCl2, pyrophosphatase, pH 8, 37 °C
T4 construct: gene DARS1; full-length 1-501, codon-optimised, expressed in E. coli BL21(DE3), His-tag removed with TEV protease, homodimer
T4 sequence (P14868 1-501): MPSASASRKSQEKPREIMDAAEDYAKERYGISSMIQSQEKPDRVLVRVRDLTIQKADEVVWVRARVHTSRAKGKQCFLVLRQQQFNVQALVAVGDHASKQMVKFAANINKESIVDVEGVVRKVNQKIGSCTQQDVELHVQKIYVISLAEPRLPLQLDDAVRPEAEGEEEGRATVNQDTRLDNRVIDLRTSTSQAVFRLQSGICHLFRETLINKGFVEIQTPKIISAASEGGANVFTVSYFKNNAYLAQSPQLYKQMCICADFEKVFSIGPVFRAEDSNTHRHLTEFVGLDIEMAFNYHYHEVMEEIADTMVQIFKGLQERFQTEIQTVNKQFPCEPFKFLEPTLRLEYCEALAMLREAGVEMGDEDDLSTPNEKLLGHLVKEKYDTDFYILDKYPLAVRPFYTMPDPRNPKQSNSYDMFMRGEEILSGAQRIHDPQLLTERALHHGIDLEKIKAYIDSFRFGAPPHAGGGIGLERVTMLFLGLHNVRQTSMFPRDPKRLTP

[6] = molecular target: T2, native length PvAspRS (51-631); assay: Kinase-Glo ATP consumption assay; type: biochemical; conditions: 10 µM ATP, 200 µM L-Asp, 80 µM E. coli tRNA, 5 mM MgCl2, pyrophosphatase, pH 8, 37 °C
[7] = molecular target: T3, truncated PvAspRS (96-631); assay: X-ray crystal structure, […] Å; type: binding; conditions: active site, both chains; crystallised with ATP and L-Asp
[8] = molecular target: T3, truncated PvAspRS (96-631); assay: X-ray crystal structure, […] Å; type: binding; conditions: active site, both chains; Mg2+ in chain B
[9] = molecular target: T3, truncated PvAspRS (96-631); assay: X-ray crystal structure, […] Å; type: binding; conditions: active site of catalytic domain, both chains; possible radiation damage at the 2-Cl
[10] = molecular target: T4, HsAspRS (1-501); assay: differential scanning fluorimetry; type: binding; conditions: 2 or 5 µM synthetic Asp-DACM, pH 8, 37 °C, 3 h
[11] = molecular target: T1, native length PfAspRS (49-626); assay: differential scanning fluorimetry; type: binding; conditions: 2 or 5 µM synthetic Asp-DACM, pH 8, 37 °C, 3 h
[12] = molecular target: T2, native length PvAspRS (51-631); assay: differential scanning fluorimetry; type: binding; conditions: 2 or 5 µM synthetic Asp-DACM, pH 8, 37 °C, 3 h
[13] = molecular target: T2, native length PvAspRS (51-631); assay: differential scanning fluorimetry after […] h incubation with substrates; type: binding; conditions: read-out: dTm
[14] = molecular target: native length PfAspRS (49-626), Plasmodium falciparum cytoplasmic aspartyl tRNA synthetase (P. falciparum); assay: SEC; gel filtration after removal of the His-tags; 25 mM or 50 mM Tris-HCl pH 8.0, 150 mM NaCl, 0.5 or 1 mM TCEP
[15] = molecular target: native length PfAspRS (49-626), Plasmodium falciparum cytoplasmic aspartyl tRNA synthetase (P. falciparum); assay: AUC; sedimentation velocity, c(s) model; PfAspRS at 1, 0.6 and 0.2 mg/mL in 50 mM Tris pH 8.0, 150 mM NaCl, 1 mM TCEP; 200,000 g, 20°C, absorbance at 290 nm
[16] = molecular target: native length PvAspRS (51-631), Plasmodium vivax aspartyl tRNA synthetase (P. vivax); assay: SEC; gel filtration after removal of the His-tags; 25 mM or 50 mM Tris-HCl pH 8.0, 150 mM NaCl, 0.5 or 1 mM TCEP
[17] = molecular target: T5, full-length HsAspRS (1-501), human aspartyl tRNA synthetase (human), P14868; assay: as above; conditions: remark: other sources report otherwise
T5 chain: T4 sequence (P14868 1-501)

Nc1ncnc2c1ncn2[C@@H]1O[C@H](COS(N)(=O)=O)[C@@H](O)[C@H]1O [AMS]
Tm [1]: 57.0 °C
Tm [2]: 59.5 °C

Nc1ncnc2c1ncn2[C@@H]1O[C@H](COP(=O)(O)OP(=O)(O)OP(=O)(O)O)[C@@H](O)[C@H]1O [ATP]
Kinase-Glo ATP consumption assay [3]: Addition of EctRNA substantively increased the level of ATP consumption
Kinase-Glo ATP consumption assay [4]: marked increase in ATP consumption in the presence of EctRNA
Kinase-Glo ATP consumption assay [5]: Addition of EctRNA substantively increased the level of ATP consumption
Kinase-Glo ATP consumption assay [6]: Addition of EctRNA substantively increased the level of ATP consumption

Nc1ncnc2c1ncn2[C@@H]1O[C@H](COP(=O)(O)OC(=O)[C@@H](N)CC(=O)O)[C@@H](O)[C@H]1O [Asp-AMP]
X-ray crystal structure, 2.1 Å [7]: We also solved the structure of PvAspRS with the natural intermediate, Asp-AMP

Nc1ncnc2c1ncn2[C@@H]1O[C@H](COS(=O)(=O)NC(=O)[C@@H](N)CC(=O)O)[C@@H](O)[C@H]1O [Asp-AMS, 5′-O-(N-L-aspartate)-sulfamoyl-adenosine]
X-ray crystal structure, 1.8 Å [8]: We also solved the structure of PvAspRS with bound synthetic Asp-AMS

Nc1nc(Cl)nc2c1ncn2[C@@H]1O[C@H](COS(=O)(=O)NC(=O)[C@@H](N)CC(=O)O)[C@@H](O)[C@H]1O [Asp-DACM, 2-chloro-5′-O-[N-(L-aspartyl)-sulfamoyl] adenosine]
X-ray crystal structure, 2.4 Å [9]: We solved the structure of PvAspRS with bound synthetic Asp-DACM
dTm [10]: synthetic Asp-DACM increased the Tm values of PfAspRS, PvAspRS and HsAspRS
dTm [11]: synthetic Asp-DACM increased the Tm values of PfAspRS, PvAspRS and HsAspRS
dTm [12]: synthetic Asp-DACM increased the Tm values of PfAspRS, PvAspRS and HsAspRS

Nc1nc(Cl)nc2c1ncn2[C@@H]1O[C@H](COS(N)(=O)=O)[C@@H](O)[C@H]1O [DACM, 5′-O-sulfamoyl-2-chloroadenosine]
ΔTm at 10 µM [13]: 19 °C

native length PfAspRS (49-626), Plasmodium falciparum cytoplasmic aspartyl tRNA synthetase (enzyme)
stoichiometry N [14]: 2
stoichiometry N [15]: 2

native length PvAspRS (51-631), Plasmodium vivax aspartyl tRNA synthetase (enzyme)
stoichiometry N [16]: 2

B1: full-length HsAspRS (1-501), human aspartyl tRNA synthetase, P14868-1 1-501 (enzyme)
chain: T4 sequence (P14868 1-501)
stoichiometry N [17]: 2
